Experimental findings from US9751869B2, “LXR modulators” (BRISTOL-MYERS SQUIBB COMPANY, priority 2013, dated 2017) are described below.

For orientation: EC50 means the midpoint of the concentration-response curve.

This assay deals with T1, LXRβ (Homo sapiens, UniProt P55055).
T1 construct: Co-transfection expression plasmids, comprising full-length LXRα (pCMX-h LXRα or LXRβ (pCMX-hLXRβ)); expressed in transfected cells; host or cells: CV-1 African green monkey kidney cells, transient transfection with pCMX-hLXRβ
T1 sequence (P55055 1-460): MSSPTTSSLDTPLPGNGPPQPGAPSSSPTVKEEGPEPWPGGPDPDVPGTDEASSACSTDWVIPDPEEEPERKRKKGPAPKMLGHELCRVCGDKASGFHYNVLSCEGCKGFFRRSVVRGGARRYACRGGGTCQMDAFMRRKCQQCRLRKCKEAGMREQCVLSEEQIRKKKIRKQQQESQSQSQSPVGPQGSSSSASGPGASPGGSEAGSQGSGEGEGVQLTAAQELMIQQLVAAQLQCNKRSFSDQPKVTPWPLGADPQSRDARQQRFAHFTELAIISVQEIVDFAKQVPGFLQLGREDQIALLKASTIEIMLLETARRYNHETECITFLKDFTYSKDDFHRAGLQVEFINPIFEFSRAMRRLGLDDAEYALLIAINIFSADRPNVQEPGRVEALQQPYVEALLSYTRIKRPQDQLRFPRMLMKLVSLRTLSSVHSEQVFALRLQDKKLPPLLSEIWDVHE
T1 sequence (P19793 1-462 partner): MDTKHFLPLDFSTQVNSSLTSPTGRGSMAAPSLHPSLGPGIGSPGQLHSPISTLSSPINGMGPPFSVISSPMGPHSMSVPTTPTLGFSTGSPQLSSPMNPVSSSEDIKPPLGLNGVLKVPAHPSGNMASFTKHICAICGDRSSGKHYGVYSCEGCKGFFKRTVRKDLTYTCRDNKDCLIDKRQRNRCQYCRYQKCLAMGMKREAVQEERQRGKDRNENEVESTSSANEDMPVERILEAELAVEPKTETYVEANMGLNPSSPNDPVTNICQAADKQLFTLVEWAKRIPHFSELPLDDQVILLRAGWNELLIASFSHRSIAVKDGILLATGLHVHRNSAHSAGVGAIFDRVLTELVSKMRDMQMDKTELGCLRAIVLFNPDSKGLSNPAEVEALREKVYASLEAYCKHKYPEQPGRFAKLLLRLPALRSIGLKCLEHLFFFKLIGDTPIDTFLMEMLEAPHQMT
The assay is described as follows: LXR/LXRE co-transfection assay (luciferase reporter) in CV-1 cells, LXRβ. It counts as cell-based. The following applies: for EC50: CV-1 cells transfected with pCMX-hLXRβ and LXREx1-Tk-Luciferase, 20 hours incubation, read-out: LXRbeta agonism EC50; for Emax: read-out: LXRbeta % EFFICACY
From the text:
To measure the ability of compounds to activate or inhibit the transcriptional activity of LXR in a cell based assay, the co-transfection assay was used. It has been shown that LXR functions as a heterodimer with RXR. For the co-transfection assay, expression plasmids for LXRα and LXRβ are introduced separately via transient transfection into mammalian cells along with a luciferase reporter plasmid that contains one copy of a DNA sequence that is bound by LXR-RXR heterodimers (LXRE; Willy, P. et. al. 1995). LXRs heterodimerize with the endogenous RXR. Treatment of transfected cells with an LXR agonist increases the transcriptional activity of LXR, which is measured by an increase in luciferase activity.
Co-transfection expression plasmids, comprising full-length LXRα (pCMX-h LXRα or LXRβ (pCMX-hLXRβ), reporter plasmid (LXREx1-Tk-Luciferase), and control (pCMX-Galactosidase expression vector) (Willey et al. Genes & Development 9 1033-1045 (1995)).
CV-1 cells were prepared 24 hours prior to the experiment by plating them into T-175 flasks or 500 cm^2 dishes in order to achieve 70-80% confluency on the day of the transfection. The number of cells to be transfected was determined by the number of plates to be screened. Each well of a 384 well plate requires 1.5×10^4 cells. DNA Transfection Reagent was prepared by mixing the required plasmid DNAs with a cationic lipid transfection reagent Transit 2020 (Mirus Bio) for CV1 by following the instructions provided with the reagents. Optimal DNA amounts were determined empirically per cell line and size of vessel to be transfected. For each T175 cm^2 flask a total of 44.4 ug for CV1 of DNA, 133 ul Transit2020 and 4.5 ml DMEM for CV1 was mixed and added. Cells were then incubated at least 5 hours at 37° C. to prepare screening cells.
Assay plates were prepared by dispensing 5 μL of compound per well of a 384 well plate to achieve final compound concentration of 10 μM and no more than 0.5% DMSO. Media was removed from the screening cells, the cells trypsinized, harvested cells by centrifugation, counted, and plated at a density of approximately 1.5×10^4 cells in the 384 well assay plate prepared above in a volume of about 95 uL. Assay plates containing both compounds and screening cells (100 μL in total volume) were incubated for 20 hours at 37° C.
After incubation with compounds, media was removed from the cells and luciferase assay reagent (30 μL/well) added. After ˜2 minutes at ambient temperature, the assay plates were read on a luminometer (PE Biosystems Northstar reader with on-board injectors, or Envision (Perkin Elmer) or equivalent).
The LXR/LXRE co-transfection assay can be used to establish the EC50/IC50 values for potency and percent activity or inhibition for efficacy. Efficacy defines the activity of a compound relative to a high control ((N-(3-((4-fluorophenyl)-(naphthalene-2-sulfonyl)amino)propyl)-2,2-dimethylpropionamide)) or a low control (DMSO/vehicle). The dose response curves are generated from a 10 point curve with concentrations differing by ½ LOG units. Each point represents the average of 4 wells of data from a 384 well plate.
The data from this assay is fitted to the following equation, from which the EC50 value may be solved: Y=Bottom+(Top−Bottom)/(1+10^((log EC50-X)*HillSlope)).
The EC50/IC50 is therefore defined as the concentration at which an agonist or antagonist elicits a response that is halfway between the Top (maximum) and Bottom (baseline) values. The EC50/IC50 values represented are the averages of at least 2 and normally 3 independent experiments. The determination of the relative efficacy or % control for an agonist is by comparison to the maximum response achieved by ((N-(3-((4-fluorophenyl)-(naphthalene-2-sulfonyl)-amino)propyl)-2,2-dimethylpropionamide) that is measured individually in each dose response experiment.
Table 1 lists LXRβ EC50 values and % efficacy measurements in the cotransfection assay for examples of this invention.
(A reporter such as luciferase makes a cellular process visible.)

Setting [1] is: CV-1 cells, relative to maximum response of high control N-(3-((4-fluorophenyl)-(naphthalene-2-sulfonyl)amino)propyl)-2,2-dimethylpropionamide.

For the molecule `Cc1nc(-c2ccc(OC(F)(F)F)cc2)c(-c2cc(-c3cccc(S(C)(=O)=O)c3)ccc2-n2ccc(C(C)O)n2)o1` (single isomer, unassigned) [Example 367, 1-(1-(3-(2-methyl-4-(4-(trifluoromethoxy)phenyl)oxazol-5-yl)-3′-(methylsulfonyl)-[1,1′-biphenyl]-4-yl)-1H-pyrazol-3-yl)ethanol], the EC50 is 264 nM. Further, the Emax under setting [1] amounted to 55%.

Regarding `Cc1nc(-c2ccc(OC(F)(F)F)cc2)c(-c2cc(-c3cccc(S(C)(=O)=O)c3)ccc2-n2ccc(C(C)O)n2)o1` (single isomer, unassigned) [Example 368, 1-(1-(3-(2-methyl-4-(4-(trifluoromethoxy)phenyl)oxazol-5-yl)-3′-(methylsulfonyl)-[1,1′-biphenyl]-4-yl)-1H-pyrazol-3-yl)ethanol], the concentration giving a half-maximal response (EC50) stood at 890 nM. For the same molecule, the “LXRbeta % EFFICACY” value under setting [1] stood at 50%.

In the case of `CC(O)C(F)(F)c1cc(-c2ccc(-c3cccc(S(C)(=O)=O)c3)cc2-n2nncc2-c2ccc(OC(F)(F)F)cc2)n(C)n1` (centres unmarked) [Example 1, 1,1-difluoro-1-(1-methyl-5-(3′-(methylsulfonyl)-3-(5-(4-(trifluoromethoxy)phenyl)-1H-1,2,3-triazol-1-yl)biphenyl-4-yl)-1H-pyrazol-3-yl)propan-2-ol], the EC50 was determined as 783 nM. For the same molecule, the Emax under setting [1] is 68%.

Turning to `CCC(F)(F)c1cc(-c2ccc(-c3cc(F)c(CO)c(S(C)(=O)=O)c3)cc2-n2nncc2-c2ccc(OC(F)(F)F)cc2)n(C)n1` [Example 2, (4′-(3-(1,1-difluoropropyl)-1-methyl-1H-pyrazol-5-yl)-3-fluoro-5-(methylsulfonyl)-3′-(5-(4-(trifluoromethoxy)phenyl)-1H-1,2,3-triazol-1-yl)biphenyl-4-yl)methanol], the EC50 came to 26 nM. For the same molecule, the Emax under setting [1] is 89%.

`Cn1nc(C(F)(F)C(C)(C)O)cc1-c1ccc(-c2cc(F)c(CO)c(S(C)(=O)=O)c2)cc1-n1nncc1-c1ccc(OC(F)(F)F)cc1` [Example 3, 1,1-difluoro-1-(5-(3′-fluoro-4′-(hydroxymethyl)-5′-(methylsulfonyl)-3-(5-(4-(trifluoromethoxy)phenyl)-1H-1,2,3-triazol-1-yl)biphenyl-4-yl)-1-methyl-1H-pyrazol-3-yl)-2-methylpropan-2-ol]: the EC50 stood at 245 nM. For the same molecule, the Emax under setting [1] came to 73%.

As for `Cn1nc(C(F)(F)C(N)=O)cc1-c1ccc(-c2cccc(S(C)(=O)=O)c2)cc1-n1nncc1-c1ccc(OC(F)(F)F)cc1` [Example 4, 2,2-difluoro-2-(1-methyl-5-(3′-(methylsulfonyl)-3-(5-(4-(trifluoromethoxy)phenyl)-1H-1,2,3-triazol-1-yl)biphenyl-4-yl)-1H-pyrazol-3-yl)acetamide], the EC50 is 1580 nM. In addition, the Emax under setting [1] was determined as 82%.

As for `Cc1c(C(C)(F)F)nn(C)c1-c1ccc(-c2cc(F)c(CO)c(S(C)(=O)=O)c2)cc1-n1nncc1-c1ccc(OC(F)(F)F)cc1` [Example 5], the half-maximal effective concentration (EC50) worked out at 12 nM. For the same molecule, under setting [1], the Emax was 109%.

Consider `CC(O)C(F)(F)c1cc(-c2ccc(-c3cc(F)c(CO)c(S(C)(=O)=O)c3)cc2-n2nncc2-c2ccc(OC(F)(F)F)cc2)n(C)n1` (centres unmarked) [Example 6, 1,1-difluoro-1-(5-(3′-fluoro-4′-(hydroxymethyl)-5′-(methylsulfonyl)-3-(5-(4-(trifluoromethoxy)phenyl)-1H-1,2,3-triazol-1-yl)biphenyl-4-yl)-1-methyl-1H-pyrazol-3-yl)propan-2-ol], for which the concentration for a half-maximal effect (EC50) was determined as 252 nM. Moreover, the Emax under setting [1] was found to be 84%.

For the molecule `Cn1nc(C(F)(F)C(C)(C)O)cc1-c1ccc(-c2cccc(S(C)(=O)=O)c2)cc1-n1nncc1-c1ccc(OC(F)(F)F)cc1` [Example 7, 1,1-difluoro-2-methyl-1-(1-methyl-5-(3′-(methylsulfonyl)-3-(5-(4-(trifluoromethoxy)phenyl)-1H-1,2,3-triazol-1-yl)biphenyl-4-yl)-1H-pyrazol-3-yl)propan-2-ol], the EC50 was determined as 377 nM. The Emax under setting [1] is 66%.

As to `Cn1nc(C(F)(F)C(N)=O)cc1-c1ccc(-c2cc(F)c(CO)c(S(C)(=O)=O)c2)cc1-n1nncc1-c1ccc(OC(F)(F)F)cc1` [Example 8, 2,2-difluoro-2-(5-(3′-fluoro-4′-(hydroxymethyl)-5′-(methylsulfonyl)-3-(5-(4-(trifluoromethoxy)phenyl)-1H-1,2,3-triazol-1-yl)biphenyl-4-yl)-1-methyl-1H-pyrazol-3-yl)acetamide], the EC50 is 2320 nM. Under setting [1], the Emax is 79%.

Turning to `CCC(F)(F)c1cc(-c2ccc(-c3cccc(S(C)(=O)=O)c3)cc2-n2nncc2-c2ccc(OC(F)(F)F)cc2)n(C)n1` [Example 9, 1-(4-(3-(1,1-difluoropropyl)-1-methyl-1H-pyrazol-5-yl)-3′-(methylsulfonyl)biphenyl-3-yl)-5-(4-(trifluoromethoxy)phenyl)-1H-1,2,3-triazole], the concentration giving a half-maximal response (EC50) amounted to 70 nM. The Emax under setting [1] stood at 82%.

For the molecule `Cc1c(C(C)(F)F)nn(C)c1-c1ccc(-c2cccc(S(C)(=O)=O)c2)cc1-n1nncc1-c1ccc(OC(F)(F)F)cc1` [Example 10, 1-(4-(3-(1,1-difluoroethyl)-1,4-dimethyl-1H-pyrazol-5-yl)-3′-(methylsulfonyl)biphenyl-3-yl)-5-(4-(trifluoromethoxy)phenyl)-1H-1,2,3-triazole], the half-maximal effective concentration (EC50) worked out at 31 nM. Moreover, the Emax under setting [1] was 104%.

For `Cc1c(C(C)(F)F)nn(C)c1-c1ccc(-c2ccc(CO)c(S(C)(=O)=O)c2)cc1-n1nncc1-c1ccc(OC(F)(F)F)cc1` [Example 11, (4′-(3-(1,1-difluoroethyl)-1,4-dimethyl-1H-pyrazol-5-yl)-3-(methylsulfonyl)-3′-(5-(4-(trifluoromethoxy)phenyl)-1H-1,2,3-triazol-1-yl)biphenyl-4-yl)methanol], the EC50 amounted to 15 nM. Further, the Emax under setting [1] turned out to be 104%.
